From publication PMC6061170, “Synthesis and biological investigations of 3β-aminotropane arylamide derivatives with atypical antipsychotic profile” (Medicinal Chemistry Research, 2018)
Several values for one entry are separate records, joined by “and”; a condition that tells them apart may be missing. Identical values can stand only once. Counter-ions that a name gives are not always drawn. Like-named read-outs stand apart in the source and are kept apart here.

What was measured:
[1] = biological target: T1, serotonin 5-HT2A receptors (Rattus norvegicus, UniProt P14842); test: Radioligand binding assay, 5-HT2A receptors; conditions: rat brain tissues; for IC50: read-out: 5-HT2A IC50 [nM] ± SEM; for Ki: read-out: 5-HT2A Ki [nM] ± SEM
T1 construct: from tissue; host or cells: rat brain tissues

Albino Swiss mice [2] = test: Forced swim test; conditions: last 4 min of session
dopamine D2 receptors = dopamine D2 receptors (Rattus norvegicus, UniProt P61169); test: Radioligand binding assay, D2 receptors
[3] = biological target: T2, serotonin 5-HT1A receptors (Rattus norvegicus, UniProt P19327); test: Radioligand binding assay, 5-HT1A receptors
T2 construct: from tissue; host or cells: rat brain tissues
T2 sequence (P19327 1-422): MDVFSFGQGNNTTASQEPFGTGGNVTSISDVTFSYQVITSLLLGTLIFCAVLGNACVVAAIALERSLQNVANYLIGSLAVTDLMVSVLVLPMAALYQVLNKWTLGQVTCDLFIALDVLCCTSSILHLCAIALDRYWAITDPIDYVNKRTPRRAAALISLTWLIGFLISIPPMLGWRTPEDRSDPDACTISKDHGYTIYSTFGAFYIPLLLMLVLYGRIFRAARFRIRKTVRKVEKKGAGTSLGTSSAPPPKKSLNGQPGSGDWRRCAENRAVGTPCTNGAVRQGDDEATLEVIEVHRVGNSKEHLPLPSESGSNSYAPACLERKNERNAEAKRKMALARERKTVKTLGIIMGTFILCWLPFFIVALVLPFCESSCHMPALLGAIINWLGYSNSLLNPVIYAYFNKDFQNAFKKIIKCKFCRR
Procedure: All compounds were tested for their affinities for 5-HT1A, 5-HT2A, and D2 receptors according to previously described procedures (Stefanowicz et al. [2016]).
Competition binding studies were performed according to a previously described procedure in rat brain tissues (Stefanowicz et al. [2016]).

Albino Swiss mice [4] = test: Four-plate test
CD-1 mice [5] = test: Spontaneous locomotor activity; type: in vivo
CD-1 mice [6] = test: MK-801-induced hyperlocomotor activity
CD-1 mice [7] = test: d-Amphetamine-induced hyperlocomotor activity; conditions: for decrease of locomotor hyperactivity vs. respective d-amphetamine group: doses of 5 and 10 mg/kg i.p.
[8] = 1.25 mg/kg i.p. 30 min before test
[9] = 2.5 mg/kg i.p. 30 min before test
[10] = 5 mg/kg i.p. 30 min before test
[11] = rat brain tissues, read-out: D2 IC50 [nM] ± SEM
[12] = rat brain tissues, read-out: D2 Ki [nM] ± SEM
[13] = rat brain tissues, read-out: 5-HT1A IC50 [nM] ± SEM
[14] = 10 mg/kg i.p. 30 min before test
[15] = compound 5 mg/kg i.p. 30 min + MK-801 0.2 mg/kg
[16] = compound 5 mg/kg i.p. + d-amphetamine 2.5 mg/kg s.c.
[17] = compound 10 mg/kg i.p. + d-amphetamine 2.5 mg/kg s.c.

T1 sequence (P14842 whole entry): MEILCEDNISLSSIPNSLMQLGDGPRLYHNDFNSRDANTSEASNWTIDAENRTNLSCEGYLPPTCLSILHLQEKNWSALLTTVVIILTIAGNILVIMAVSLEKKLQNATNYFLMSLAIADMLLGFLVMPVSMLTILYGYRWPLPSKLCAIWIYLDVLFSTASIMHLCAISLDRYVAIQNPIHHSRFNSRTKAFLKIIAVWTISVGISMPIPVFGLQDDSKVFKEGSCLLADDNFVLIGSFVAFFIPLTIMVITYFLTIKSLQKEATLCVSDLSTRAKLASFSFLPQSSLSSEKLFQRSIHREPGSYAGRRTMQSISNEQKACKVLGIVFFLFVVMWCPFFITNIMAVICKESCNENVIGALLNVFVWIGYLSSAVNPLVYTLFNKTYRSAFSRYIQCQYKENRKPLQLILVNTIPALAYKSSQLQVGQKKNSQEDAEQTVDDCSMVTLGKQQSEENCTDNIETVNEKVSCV
dopamine D2 receptors, sequence (P61169 1-415 isoform P61169-2): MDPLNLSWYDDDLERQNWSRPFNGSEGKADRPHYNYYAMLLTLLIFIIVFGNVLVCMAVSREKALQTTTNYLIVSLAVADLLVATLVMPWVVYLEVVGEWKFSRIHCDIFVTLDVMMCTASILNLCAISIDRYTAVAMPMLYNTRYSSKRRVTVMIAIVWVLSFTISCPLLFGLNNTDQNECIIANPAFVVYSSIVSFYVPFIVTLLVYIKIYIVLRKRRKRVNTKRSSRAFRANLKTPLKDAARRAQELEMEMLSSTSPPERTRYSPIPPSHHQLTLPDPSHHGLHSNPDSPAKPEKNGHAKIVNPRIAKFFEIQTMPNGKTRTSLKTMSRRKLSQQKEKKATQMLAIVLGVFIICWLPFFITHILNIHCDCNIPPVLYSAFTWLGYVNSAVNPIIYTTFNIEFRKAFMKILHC

SMILES | IC50 [1] [nM] | Ki [1] [nM] | Immobility time (s) Mean ± SEM (Albino Swiss mice [2]; [8]) [s] | Immobility time (s) Mean ± SEM (Albino Swiss mice [2]; [9]) | Immobility time (s) Mean ± SEM (Albino Swiss mice [2]; [10]) | IC50 (dopamine D2 receptors; [11]) [nM] | Ki (dopamine D2 receptors; [12]) [nM] | Ki [3] [nM] | IC50 [3, 13] [nM] | melting point [°C] | Number of punished crossings /1 min Mean ± SEM (Albino Swiss mice [4]; [9]) | Number of punished crossings /1 min Mean ± SEM (Albino Swiss mice [4]; [10]) | Number of punished crossings /1 min Mean ± SEM (Albino Swiss mice [4]; [14]) | Ki (dopamine D2 receptors) [nM] | Number of crossings/60 min Mean ± SEM (CD-1 mice [6]; [15]) | Number of crossings/60 min Mean ± SEM (CD-1 mice [7]; [16]) | Number of crossings/60 min Mean ± SEM (CD-1 mice [7]; [17]) | decrease of locomotor hyperactivity vs. respective d-amphetamine group (CD-1 mice [7]) | other results
COc1cc(C(=O)NC2CC3CCC(C2)N3Cc2ccccc2C)nc2ccccc12 (centres unmarked) [Compound 12d] | > 10000 | > 10000 | 144.22 ± 14.5 | 113.44 ± 14.9 s | 150.8 ± 11.4 F(3,32) = 5.5680; NS s | > 10000 | > 10000 | 34 ± 1.7 | 102 ± 4.9 | 54.5 to 55.9 | 3.3 ± 0.3 crossings/1 min | 4.8 ± 0.3 crossings/1 min | 4.7 ± 0.8 F(3,36) = 3.1652; p < 0.05 crossings/1 min | – | – | – | – | – | –
Cc1cccc(CN2C3CCC2CC(NC(=O)c2ccc4ccccc4n2)C3)c1 (centres unmarked) [Compound 12e] | > 10000 | > 10000 | – | 172.14 ± 11.6 s | – | 260 ± 16.7 | – | 55.3 ± 8.3 | 166 ± 25 | 113.8 to 114.7 | 3.5 ± 0.3 crossings/1 min | 2.9 ± 0.3 crossings/1 min | 3.8 ± 0.5 F(3,36) = 1.3827; NS crossings/1 min | 52.2 ± 3.4 | 3580.7 ± 384.9; ns, ns F(5,48) = 2.8885; p < 0.05 crossings/60 min | 2651.0 ± 512.6; p < 0.01 vs. amph.; ns vs. contr crossings/60 min | 909.9 ± 11.3; p < 0.0001 vs. amph.; ns vs. contr F(4,42) = 10.584; p < 0.0001 crossings/60 min | 60–86% | Immobility time (s) Mean ± SEM (Albino Swiss mice [2]; [14]): 183.33 ± 12.3 F(3,30) = 1.2074; NS s; Number of crossings/60 min Mean ± SEM (CD-1 mice [5]; [14]): 1034 ± 255.9 p < 0.05 F(1,18) = 5.4398; p < 0.05 crossings/60 min; effect on spontaneous locomotor activity (CD-1 mice [5]; doses used in hyperlocomotor activity tests): did not change the spontaneous locomotor activity; effect on MK-801-induced hyperlocomotor activity (CD-1 mice [6]; 5 mg/kg, tendency to decrease): did not reach a statistically significant level; Number of crossings/60 min Mean ± SEM (CD-1 mice [6]; compound 0.625 mg/kg i.p. 30 min + MK-801 0.2 mg/kg): 4375.1 ± 583.4; ns, ns crossings/60 min; Number of crossings/60 min Mean ± SEM (CD-1 mice [6]; compound 1.25 mg/kg i.p. 30 min + MK-801 0.2 mg/kg): 4019.3 ± 341.3; ns, ns crossings/60 min; Number of crossings/60 min Mean ± SEM (CD-1 mice [6]; compound 2.5 mg/kg i.p. 30 min + MK-801 0.2 mg/kg): 5440.1 ± 937.3 ns, ns crossings/60 min; Number of crossings/60 min Mean ± SEM (CD-1 mice [7]; compound 2.5 mg/kg i.p. + d-amphetamine 2.5 mg/kg s.c.): 2993.0 ± 301.0; p < 0.01 vs. amph.; ns vs. contr crossings/60 min
COc1cc(C(=O)NC2CC3CCC(C2)N3Cc2cccc(C)c2)nc2ccccc12 (centres unmarked) [Compound 12h] | > 10000 | > 10000 | 134.78 ± 12.9 | 185.00 ± 15.0 F(3,30) = 3.5680; p < 0.05 s | – | 2510 ± 271 | 503 ± 54.5 | 21 ± 2 | – | 116.1 to 118.3 | 5.5 ± 0.5; p < 0.001 crossings/1 min | 2.9 ± 0.3 F(3,36) = 17.202; p < 0.00001 crossings/1 min | – | – | – | – | – | – | Immobility time (s) Mean ± SEM (Albino Swiss mice [2]; 0.625 mg/kg i.p. 30 min before test): 163.29 ± 10.7 s; IC50 [3]: 62.8 ± 6.2 nM; Number of punished crossings /1 min Mean ± SEM (Albino Swiss mice [4]; [8]): 5.3 ± 0.3; p < 0.001 crossings/1 min; increase of punished crossings vs. respective control group (Albino Swiss mice [4]; 1.25 and 2.5 mg/kg i.p.): ~60%
Cc1ccc(CN2C3CCC2CC(NC(=O)c2ccc4ccccc4n2)C3)cc1 (stereo not drawn) [Compound 12i, N-[8-(4-methylbenzyl)-8-azabicyclo[3.2.1]oct-3β-yl)]-quinoline-2-carboxamide oxalate] | > 10000 | > 10000 | 132.00 ± 2.93 | 149.89 ± 12.7 s | 219.67 ± 1.43; p < 0.05 F(3,26) = 7.5750; p < 0.001 s | – | – | 43.5 ± 1.3 | 131 ± 4.4 | – | 3.1 ± 0.3 crossings/1 min | 2.3 ± 0.4 crossings/1 min | 1.7 ± 0.4; p < 0.05 F(3,35) = 4.2954; p < 0.05 crossings/1 min | 7.4 ± 0.4 | 2432.8 ± 526.6; ns vs. contr p < 0.01 vs. MK crossings/60 min | 1771.3 ± 470.4; p < 0.01 vs. amph.; ns vs. contr crossings/60 min | 2046.2 ± 63.1; p < 0.01 vs. amph.; ns vs. contr F(3,34) = 6.5110; p < 0.01 crossings/60 min | 60–86% | Number of crossings/60 min Mean ± SEM (CD-1 mice [5]; [8]): 1573.6 ± 149.3 crossings/60 min; Number of crossings/60 min Mean ± SEM (CD-1 mice [5]; [9]): 2676.0 ± 336.7; p < 0.01 crossings/60 min; Number of crossings/60 min Mean ± SEM (CD-1 mice [5]; [10]): 1135.8 ± 184.3 F(3,34) = 8.8733; p < 0.001 crossings/60 min; decrease of spontaneous locomotor activity (CD-1 mice [5]; 10 mg/kg): about 70%; IC50 (dopamine D2 receptors): 37 ± 2.1 nM; effect on MK-801-induced hyperlocomotor activity (CD-1 mice [6]; 5 mg/kg and 10 mg/kg i.p.): significantly reduced; Number of crossings/60 min Mean ± SEM (CD-1 mice [6]; compound 10 mg/kg i.p. 30 min + MK-801 0.2 mg/kg): 805.4 ± 147.2 ns vs. contr p < 0.0001 vs. MK F(3,30) = 14.206; p < 0.0001 crossings/60 min
C[C@]12N[C@H](Cc3ccccc31)c1ccccc12 [MK-801, reference compound] | – | – | – | – | – | – | – | – | – | – | – | – | – | – | – | – | – | – | Number of crossings/60 min Mean ± SEM (CD-1 mice [6]; MK-801 alone 0.2 mg/kg i.p. 15 min before test): 4708.1 ± 522.1; p < 0.01 vs. contr crossings/60 min and 6247.1 ± 1063.8; p < 0.01 vs. contr crossings/60 min and 8757.9 ± 1378; p < 0.00001 vs. contr crossings/60 min and 6329.9 ± 1012.5; p < 0.05 vs. contr crossings/60 min
C[C@H](N)Cc1ccccc1 [d-amphetamine, reference compound] | – | – | – | – | – | – | – | – | – | – | – | – | – | – | – | – | – | – | Number of crossings/60 min Mean ± SEM (CD-1 mice [7]; d-amphetamine alone 2.5 mg/kg s.c. 30 min before test): 6819.9 ± 1534.7; p < 0.05 vs. contr crossings/60 min and 6553.1 ± 1214.5; p < 0.001 vs. contr crossings/60 min
